The data set concerns essential tremor. The data set can be described thus: Clinical study in essential tremor (TETRAS, accelerometer). It counts as in vivo, human. To be noted: essential tremor patient, emerging data. As for the experimental part: A clinical study was conducted to investigate the efficacy, safety, and tolerability of the compound of formula (I) in essential tremor. A patient who has been diagnosed with essential tremor completed 3 study periods: Screening, Treatment period (14 days), and Safety follow-up. The patient received a stable dose of 1 tremor medication throughout the clinical trial. The patient received 20 mg of the compound of formula (I) (one tablet of formulation 5) orally once a day for 7 days and 40 mg of the compound of formula (I) (two tablets of 20 mg formulation 5) orally once a day for 7 days (total of 14 days consecutively). Efficacy of the compound of formula (I) on upper limb tremor was assessed by The Essential Tremor Rating Assessment Scale (TETRAS) upper limb score at Baseline, on Day 7, and on Day 14. Efficacy of the compound of formula (I) on other measures of tremor severity was assessed by TETRAS performance subscale score, TETRAS performance individual items, and accelerometer at Baseline, on Day 7, and on Day 14.

`CC(C)(C)NC(=O)CN1CCC(CNC(=O)c2cc(F)cc(Cl)c2)CC1` [compound of formula (I)]: the tolerability entry was “well tolerated”.

These data come from patent US11649207B2, “Formulations of T-type calcium channel modulators and methods of use thereof” (PRAXIS PRECISION MEDICINES, INC., priority 2019, dated 2023).
